{
  "source": "patent US20260274876A1",
  "about": "“3-PYRROLIDINE-INDOLE DIMERS AS SEROTONERGIC AGENTS USEFUL FOR THE TREATMENT OF DISORDERS RELATED THERETO” (MINDSET PHARMA INC., priority 2022, published 2026)",
  "key": {"[1]": {"experiment": "Liver microsomes stability, rat", "details": "rat liver microsomes, 60 min", "method": "(§1) 40 μL of 10 mM NADPH solution was added to each well. The final concentration of NADPH was 1 mM. The negative control samples were prepared by replacing NADPH with 40 μL of ultra-pure H2O. Samples were prepared in duplicate. Negative controls were prepared in singlet.\n(§2) This study was performed in duplicate.\n(§3) LC/MS analysis was performed for all samples from this study using a Shimadzu liquid chromatograph separation system equipped with degasser DGU-20A5R; solvent delivery unit LC-30AD; system controller SIL-30AC; column oven CTO-30A; CTC Analytics HTC PAL System. Mass spectrometric analysis was performed using a Triple Quad™ 5500 instrument.\n(§4) All calculations were carried out using Microsoft Excel.\n(§5) All calculations were carried out using Microsoft Excel. Peak areas were determined from extracted ion chromatograms."}, "[2]": {"experiment": "Liver microsomes stability, mouse", "details": "mouse liver microsomes, 60 min", "method": "as §1, §2, §3, §4, §5"}, "[3]": {"experiment": "Liver microsomes stability, human", "details": "human liver microsomes, without cofactors, 60 min", "method": "as §1, §2, §3, §4, §5"}, "[4]": {"experiment": "Intestinal mucosal permeation using Caco-2 cell monolayers", "details": "human; for Papp A→B at 2 h, 5 µM / Papp B→A at 2 h, 5 µM / efflux ratio at 2 h, 5 μM: Caco-2, pH 7.4", "method": "Plate was returned to incubator.\nVortexed for 5 minutes. […] Incubated at 37° C. for 30 minutes."}, "[5]": {"experiment": "Plasma stability, rat", "format": "in vitro ADME", "method": "(§6) • a. […] The final concentration of organic solvents was 0.5%. The assay was performed in duplicated. • b.\nas §4"}, "[6]": {"experiment": "Plasma stability, human", "format": "in vitro ADME", "method": "as §6, §4"}, "[7]": {"experiment": "Plasma stability, mouse", "format": "in vitro ADME", "method": "as §6, §4"}, "[8]": {"target": "human 5-HT2A receptor (Homo sapiens, UniProt P28223)", "sequence (P28223 whole entry)": "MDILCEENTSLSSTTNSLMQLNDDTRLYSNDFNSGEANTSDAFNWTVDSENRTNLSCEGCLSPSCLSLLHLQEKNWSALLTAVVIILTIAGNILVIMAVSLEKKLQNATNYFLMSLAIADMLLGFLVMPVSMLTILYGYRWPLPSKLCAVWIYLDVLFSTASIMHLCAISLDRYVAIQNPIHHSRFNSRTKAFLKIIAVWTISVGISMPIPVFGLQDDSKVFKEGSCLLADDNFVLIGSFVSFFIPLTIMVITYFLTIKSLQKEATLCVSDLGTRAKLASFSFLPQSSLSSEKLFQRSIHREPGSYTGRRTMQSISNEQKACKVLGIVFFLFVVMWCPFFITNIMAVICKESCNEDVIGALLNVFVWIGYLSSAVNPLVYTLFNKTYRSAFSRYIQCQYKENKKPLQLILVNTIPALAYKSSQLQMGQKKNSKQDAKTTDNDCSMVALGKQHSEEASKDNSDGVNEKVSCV", "experiment": "Human 5-HT2A radioligand binding assay ([3H]-ketanserin)", "method": "The objective of this study was to evaluate the binding properties of exemplary compounds of Formula I on 5-hydroxytryptamine receptor 2A (5-HT2A).\n• 1. The assay buffer was prepared following the table below.\n• 2. 8 doses of reference and test compounds starting from 10 mM stock solution as required was prepared by 5-fold serial dilutions with 100% (v/v) DMSO. • 3. UniFilter-96 GF/B plate was pretreated: • i. 50 μl/well of 0.5% (v/v) PEI was added to […]. The plates were sealed and incubated at […] for 3 hrs. • ii. After incubation, the plates were washed 3 times with ice-cold wash buffer (50 mM Tris, pH7.4). • 4. The assay plate was prepared: • i. Cell membrane was diluted with assay buffer and 330 μl/well was added to 96 round deep well plates to reach a concentration of 20 μg/well. • ii. 8 concentrations of reference or test compounds were prepared and 110 μl/well was added to 96 round deep well plates. • iii. [3H]-ketanserin was diluted with assay buffer to 5 nM (5×final concentration) and 110 μl/well was added to 96 round deep well plates. • 5. The plate was centrifuged at 1000 rpm for 30 secs and then agitated at 600 rpm, R.T. for 5 min. • 6. The plates were sealed and the plate incubated at 279C for 90 min. • 7. The incubation was stopped by vacuum filtration onto GF/B filter plates followed by 4 times washing with ice-cold wash buffer (50 mM Tris, pH7.4). • 8. The plates were dried at 379C for 45 min. • 8. The filter plates were sealed and 40 μl/well of scintillation cocktail was added. • 10. The plate was read by using a Microbeta^2 microplate counter.\n• 1. For reference and test compounds, the results were expressed as % Inhibition, using the normalization equation: N=100−100×(U−C2)/(C1−C2), where U is the unknown value, C1 is the average of high controls, and C2 is the average of low controls. • 2. The IC50 was determined by fitting percentage of inhibition as a function of compound concentrations with Hill equation using XLfit."}, "[9]": {"details": "Caco-2, pH 7.4, Percentage recovery (%) A→B, Caco-2, A→B"}, "[10]": {"details": "Caco-2, pH 7.4, Percentage recovery (%) B→A, Caco-2, B→A"}, "[11]": {"details": "37° C., N.A. = no peak detected at 30 min"}},
  "data": [
    {"smiles": "O=C(O)Cc1ccccc1Nc1c(Cl)cccc1Cl", "note": "[Diclofenac, reference compound]", "values": [
      {"measurement": "Remaining Percentage (%) after 60 min, Rat, With cofactors", "setting": "[1]; with cofactors", "result": 7.11, "unit": "%"},
      {"measurement": "Remaining Percentage (%) after 60 min, Rat, Without cofactors", "setting": "[1]; without cofactors", "result": 97.86, "unit": "%"},
      {"measurement": "Remaining Percentage (%) after 60 min, Mouse, With cofactors", "setting": "[2]; with cofactors", "result": 35.94, "unit": "%"},
      {"measurement": "Remaining Percentage (%) after 60 min, Mouse, Without cofactors", "setting": "[2]; without cofactors", "result": 97.86, "unit": "%"},
      {"measurement": "Remaining Percentage (%) after 60 min, Human, Without cofactors", "setting": "[3]", "result": 95.90, "unit": "%"}
    ]},
    {"smiles": "C[C@H]1O[C@@H](O[C@H]2[C@@H](O)C[C@H](O[C@H]3[C@@H](O)C[C@H](O[C@H]4CC[C@@]5(C)[C@H](CC[C@@H]6[C@@H]5C[C@@H](O)[C@]5(C)[C@@H](C7=CC(=O)OC7)CC[C@]65O)C4)O[C@@H]3C)O[C@@H]2C)C[C@H](O)[C@@H]1O", "note": "[Digoxin]", "values": [
      {"measurement": "Papp A→B at 2 h, 5 µM", "setting": "[4]", "result": 0.53, "unit": "×10⁻⁶ cm/s"},
      {"measurement": "Papp B→A at 2 h, 5 µM", "setting": "[4]", "result": 18.9, "unit": "×10⁻⁶ cm/s"},
      {"measurement": "efflux ratio at 2 h, 5 μM", "setting": "[4]", "result": 35.4},
      {"measurement": "recovery at 2 h, 5 μM", "setting": "[4]; [9]", "result": 86.6, "unit": "%"},
      {"measurement": "recovery at 2 h, 5 μM", "setting": "[4]; [10]", "result": 104, "unit": "%"}
    ]},
    {"smiles": "CC[C@H](C)C(=O)O[C@H]1C[C@@H](C)C=C2C=C[C@H](C)[C@H](CC[C@@H]3C[C@@H](O)CC(=O)O3)[C@H]21", "note": "[Lovastatin, reference compound]", "values": [
      {"measurement": "Remaining Percentage (%) 0 min", "setting": "[5]; 0 min", "result": 100.00, "unit": "%"},
      {"measurement": "Remaining Percentage (%) 30 min", "setting": "[5]; 30 min", "result": 0.00, "unit": "%"},
      {"measurement": "Remaining Percentage (%) 60 min", "setting": "[5]; 60 min", "result": 0.00, "unit": "%"},
      {"measurement": "Remaining Percentage (%) 120 min", "setting": "[5]; 120 min", "result": 0.00, "unit": "%"},
      {"measurement": "Remaining Percentage (%) 180 min", "setting": "[5]; 180 min", "result": 0.00, "unit": "%"},
      {"measurement": "Remaining Percentage (%) 240 min", "setting": "[5]; 240 min", "result": 0.00, "unit": "%"}
    ]},
    {"smiles": "COc1cc2nc(N3CCN(C(=O)c4ccco4)CC3)nc(N)c2cc1OC", "note": "[Prazosin]", "values": [
      {"measurement": "Papp A→B at 2 h, 5 µM", "setting": "[4]", "result": 10.1, "unit": "×10⁻⁶ cm/s"},
      {"measurement": "Papp B→A at 2 h, 5 µM", "setting": "[4]", "result": 33.1, "unit": "×10⁻⁶ cm/s"},
      {"measurement": "efflux ratio at 2 h, 5 μM", "setting": "[4]", "result": 3.28},
      {"measurement": "recovery at 2 h, 5 μM", "setting": "[4]; [9]", "result": 79.5, "unit": "%"},
      {"measurement": "recovery at 2 h, 5 μM", "setting": "[4]; [10]", "result": 105, "unit": "%"}
    ]},
    {"smiles": "CC(C)[N+](C)(CCOC(=O)C1c2ccccc2Oc2ccccc21)C(C)C", "note": "[Propantheline, reference compound]", "values": [
      {"measurement": "Remaining Percentage (%) 0 min", "setting": "[6]; 0 min", "result": 100.00, "unit": "%"},
      {"measurement": "half-life at 5 μM", "setting": "[6]; [11]", "result": 9.53, "unit": "min"},
      {"measurement": "Remaining Percentage (%) 30 min", "setting": "[6]; 30 min", "result": 18.68, "unit": "%"},
      {"measurement": "Remaining Percentage (%) 60 min", "setting": "[6]; 60 min", "result": 1.28, "unit": "%"},
      {"measurement": "Remaining Percentage (%) 0 min", "setting": "[7]; 0 min", "result": 100.00, "unit": "%"},
      {"measurement": "half-life at 5 μM", "setting": "[7]; [11]", "result": 34.4, "unit": "min"},
      {"measurement": "Remaining Percentage (%) 30 min", "setting": "[7]; 30 min", "result": 65.32, "unit": "%"},
      {"measurement": "Remaining Percentage (%) 60 min", "setting": "[7]; 60 min", "result": 32.49, "unit": "%"},
      {"measurement": "Remaining Percentage (%) 120 min", "setting": "[7]; 120 min", "result": 9.12, "unit": "%"},
      {"measurement": "Remaining Percentage (%) 180 min", "setting": "[7]; 180 min", "result": 2.90, "unit": "%"},
      {"measurement": "Remaining Percentage (%) 240 min", "setting": "[7]; 240 min", "result": 0.87, "unit": "%"}
    ]},
    {"smiles": "CC(C)NCC(O)COc1cccc2ccccc12", "note": "(stereo not shown) [Propranolol]", "values": [
      {"measurement": "Papp A→B at 2 h, 5 µM", "setting": "[4]", "result": 33.5, "unit": "×10⁻⁶ cm/s"},
      {"measurement": "Papp B→A at 2 h, 5 µM", "setting": "[4]", "result": 23.1, "unit": "×10⁻⁶ cm/s"},
      {"measurement": "efflux ratio at 2 h, 5 μM", "setting": "[4]", "result": 0.69},
      {"measurement": "recovery at 2 h, 5 μM", "setting": "[4]; [9]", "result": 91.3, "unit": "%"},
      {"measurement": "recovery at 2 h, 5 μM", "setting": "[4]; [10]", "result": 92.6, "unit": "%"}
    ]},
    {"smiles": "CN(C)CCc1c[nH]c2cccc(OP(=O)(O)O)c12", "note": "[Psilocybin, 4-phosphoryloxy-N,N-dimethyltrypatmine]", "values": [
      {"measurement": "IC50", "setting": "[8]", "result": 4.25, "unit": "µM"},
      {"measurement": "Papp A→B at 2 h, 5 µM", "setting": "[4]", "result": 0.06, "unit": "×10⁻⁶ cm/s"},
      {"measurement": "Papp B→A at 2 h, 5 µM", "setting": "[4]", "result": 0.03, "unit": "×10⁻⁶ cm/s"},
      {"measurement": "efflux ratio at 2 h, 5 μM", "setting": "[4]", "result": 0.45},
      {"measurement": "recovery at 2 h, 5 μM", "setting": "[4]; [9]", "result": 41.4, "unit": "%"},
      {"measurement": "recovery at 2 h, 5 μM", "setting": "[4]; [10]", "result": 104, "unit": "%"}
    ]}
  ]
}
